What was measured:
Type in all cases: in vivo
[1] = test system: giant foxtail (Setaria faberii); experiment: Test C preemergence; settings: Setaria faberi, pre-emergence, 336 h, scale 0 to 100, read-out: Plant response rating, Foxtail, Giant
Method in brief: (§1)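 Steps: plant seeds in loam-sand soil and treat preemergence, or grow plants in peat-based medium to 2-18 cm and spray; compound formulated in non-phytotoxic solvent/surfactant; hold in greenhouse 13-15 days; score visually versus controls from 0 (no effect) to 100 (complete control).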

[2] = test system: oilseed rape (Brassica napus); experiment: Test C preemergence; settings: Brassica napus, pre-emergence, scale 0 to 100, read-out: Plant response rating, Oilseed Rape
Method in brief: as §1

[3] = test system: large (Lg) crabgrass (Digitaria sanguinalis); experiment: Test C preemergence; settings: Digitaria sanguinalis, pre-emergence, 336 h, scale 0 to 100, read-out: Plant response rating, Crabgrass, Large
Method in brief: as §1

[4] = test system: winter wheat (Triticum aestivum); experiment: Test C preemergence; settings: Triticum aestivum, pre-emergence, 336 h, scale 0 to 100, read-out: Plant response rating, Wheat
Method in brief: as §1

[5] = test system: chickweed (common chickweed, Stellaria media); experiment: Test C postemergence; settings: Stellaria media, post-emergence, Postemergence, scale 0 to 100, read-out: Plant response rating, Chickweed
[6] = test system: pigweed (Amaranthus retroflexus); experiment: Test C postemergence; settings: Amaranthus retroflexus, post-emergence, 336 h, Postemergence, scale 0 to 100, read-out: Plant response rating, Pigweed
[7] = test system: giant foxtail (Setaria faberii); experiment: Test C postemergence; settings: Setaria faberi, post-emergence, 336 h, Postemergence, scale 0 to 100, read-out: Plant response rating, Foxtail, Giant
[8] = test system: oilseed rape (Brassica napus); experiment: Test C postemergence; settings: Brassica napus, post-emergence, Postemergence, scale 0 to 100, read-out: Plant response rating, Oilseed Rape
[9] = test system: lambsquarters (Chenopodium album); experiment: Test C postemergence; settings: Chenopodium album, post-emergence, 336 h, Postemergence, scale 0 to 100, read-out: Plant response rating, Lambsquarters
[10] = test system: barnyardgrass (Echinochloa crus-galli); experiment: Test C postemergence; settings: Echinochloa crus-galli, post-emergence, Postemergence, scale 0 to 100, read-out: Plant response rating, Barnyardgrass
[11] = test system: velvetleaf (Abutilon theophrasti); experiment: Test C postemergence; settings: Abutilon theophrasti, post-emergence, Postemergence, scale 0 to 100, read-out: Plant response rating, Velvetleaf
[12] = test system: ragweed (common ragweed, Ambrosia elatior); experiment: Test C postemergence; settings: Ambrosia artemisiifolia, post-emergence, 336 h, Postemergence, scale 0 to 100, read-out: Plant response rating, Ragweed
[13] = test system: large (Lg) crabgrass (Digitaria sanguinalis); experiment: Test C postemergence; settings: Digitaria sanguinalis, post-emergence, 336 h, Postemergence, scale 0 to 100, read-out: Plant response rating, Crabgrass, Large
soybean (Glycine max) = experiment: Test C postemergence; settings: Glycine max, post-emergence, Postemergence, scale 0 to 100, read-out: Plant response rating, Soybean
[14] = test system: Italian ryegrass (Lolium multiflorum); experiment: Test C postemergence; settings: Lolium multiflorum, post-emergence, 336 h, Postemergence, scale 0 to 100, read-out: Plant response rating, Ryegrass, Italian
[15] = test system: yellow nutsedge (Cyperus esculentus); experiment: Test C postemergence; settings: Cyperus, post-emergence, 336 h, Postemergence, scale 0 to 100, read-out: Plant response rating, Nutsedge, Yellow
[16] = test system: morningglory (Ipomoea coccinea); experiment: Test C postemergence; settings: Ipomoea, post-emergence, 336 h, Postemergence, scale 0 to 100, read-out: Plant response rating, Morningglory
[17] = test system: johnsongrass (Sorghum halepense); experiment: Test C postemergence; settings: Sorghum halepense, post-emergence, 336 h, Postemergence, scale 0 to 100, read-out: Plant response rating, Johnsongrass
corn (Zea mays) = experiment: Test C postemergence; settings: Zea mays, post-emergence, 336 h, Postemergence, scale 0 to 100
[18] = test system: winter wheat (Triticum aestivum); experiment: Test C postemergence; settings: Triticum aestivum, post-emergence, 336 h, Postemergence, scale 0 to 100, read-out: Plant response rating, Wheat
[19] = test system: blackgrass (Alopecurus myosuroides); experiment: Test C postemergence; settings: Alopecurus myosuroides, post-emergence, 336 h, Postemergence, scale 0 to 100, read-out: Plant response rating, Blackgrass
[20] = test system: galium (catchweed bedstraw, Galium aparine); experiment: Test C postemergence; settings: Galium, post-emergence, 336 h, Postemergence, scale 0 to 100, read-out: Plant response rating, Galium

Fc1cnc(Oc2c(F)ccc(F)c2Oc2ncc(F)cn2)nc1 [Compound 29, 2,2′-[(3,6-difluoro-1,2-phenylene)bis(oxy)]bis[5-fluoropyrimidine]]
pest or weed control at 31 g/ha ([1]; 31 g ai/ha, preemergence): 80%
pest or weed control at 62 g/ha ([1]; 62 g ai/ha, preemergence): 85%
pest or weed control at 125 g/ha ([1]; 125 g ai/ha, preemergence): 98%
pest or weed control at 16 g/ha ([1]; Preemergence, 16 g ai/ha): 75%
plant injury at 31 g/ha ([2]; 31 g ai/ha, preemergence): 98%
plant injury at 62 g/ha ([2]; 62 g ai/ha, preemergence): 95%
plant injury at 125 g/ha ([2]; 125 g ai/ha, preemergence): 95%
plant injury at 16 g/ha ([2]; Preemergence, 16 g ai/ha): 95%
pest or weed control at 31 g/ha ([3]; 31 g ai/ha, preemergence): 95%
pest or weed control at 62 g/ha ([3]; 62 g ai/ha, preemergence): 95%
pest or weed control at 125 g/ha ([3]; 125 g ai/ha, preemergence): 98%
pest or weed control at 16 g/ha ([3]; Preemergence, 16 g ai/ha): 95%
plant injury at 31 g/ha ([4]; 31 g ai/ha, preemergence): 5%
plant injury at 62 g/ha ([4]; 62 g ai/ha, preemergence): 35%
plant injury at 125 g/ha ([4]; 125 g ai/ha, preemergence): 60%
plant injury at 16 g/ha ([4]; Preemergence, 16 g ai/ha): 0%
pest or weed control at 16 g/ha ([5]; 16 g ai/ha): 45%
pest or weed control at 31 g/ha ([5]; 31 g ai/ha): 50%
pest or weed control at 62 g/ha ([5]; 62 g ai/ha): 50%
pest or weed control at 125 g/ha ([5]; 125 g ai/ha): 65%
pest or weed control at 31 g/ha ([6]; 31 g ai/ha): 90%
pest or weed control at 62 g/ha ([6]; 62 g ai/ha): 95%
pest or weed control at 125 g/ha ([6]; 125 g ai/ha): 90%
pest or weed control at 16 g/ha ([7]; 16 g ai/ha): 0%
pest or weed control at 31 g/ha ([7]; 31 g ai/ha): 0%
pest or weed control at 62 g/ha ([7]; 62 g ai/ha): 5%
pest or weed control at 125 g/ha ([7]; 125 g ai/ha): 20%
plant injury at 31 g/ha ([8]; 31 g ai/ha): 60%
plant injury at 62 g/ha ([8]; 62 g ai/ha): 70%
plant injury at 125 g/ha ([8]; 125 g ai/ha): 90%
pest or weed control at 16 g/ha ([9]; 16 g ai/ha): 75%
pest or weed control at 31 g/ha ([9]; 31 g ai/ha): 80%
pest or weed control at 62 g/ha ([9]; 62 g ai/ha): 85%
pest or weed control at 125 g/ha ([9]; 125 g ai/ha): 85%
pest or weed control at 16 g/ha ([10]; 16 g ai/ha): 0%
pest or weed control at 31 g/ha ([10]; 31 g ai/ha): 0%
pest or weed control at 62 g/ha ([10]; 62 g ai/ha): 5%
pest or weed control at 125 g/ha ([10]; 125 g ai/ha): 15%
pest or weed control at 31 g/ha ([11]; 31 g ai/ha): 75%
pest or weed control at 62 g/ha ([11]; 62 g ai/ha): 75%
pest or weed control at 125 g/ha ([11]; 125 g ai/ha): 80%
pest or weed control at 31 g/ha ([12]; 31 g ai/ha): 70%
pest or weed control at 62 g/ha ([12]; 62 g ai/ha): 75%
pest or weed control at 125 g/ha ([12]; 125 g ai/ha): 80%
pest or weed control at 16 g/ha ([13]; 16 g ai/ha): 0%
pest or weed control at 31 g/ha ([13]; 31 g ai/ha): 0%
pest or weed control at 62 g/ha ([13]; 62 g ai/ha): 5%
pest or weed control at 125 g/ha ([13]; 125 g ai/ha): 10%
plant injury at 31 g/ha (soybean (Glycine max); 31 g ai/ha): 70%
plant injury at 62 g/ha (soybean (Glycine max); 62 g ai/ha): 75%
plant injury at 125 g/ha (soybean (Glycine max); 125 g ai/ha): 85%
pest or weed control at 31 g/ha ([14]; 31 g ai/ha): 0%
pest or weed control at 62 g/ha ([14]; 62 g ai/ha): 35%
pest or weed control at 125 g/ha ([14]; 125 g ai/ha): 20%
pest or weed control at 31 g/ha ([15]; 31 g ai/ha): 0%
pest or weed control at 62 g/ha ([15]; 62 g ai/ha): 0%
pest or weed control at 125 g/ha ([15]; 125 g ai/ha): 0%
pest or weed control at 31 g/ha ([16]; 31 g ai/ha): 75%
pest or weed control at 62 g/ha ([16]; 62 g ai/ha): 90%
pest or weed control at 125 g/ha ([16]; 125 g ai/ha): 95%
pest or weed control at 16 g/ha ([17]; 16 g ai/ha): 0%
pest or weed control at 31 g/ha ([17]; 31 g ai/ha): 0%
pest or weed control at 62 g/ha ([17]; 62 g ai/ha): 20%
pest or weed control at 125 g/ha ([17]; 125 g ai/ha): 20%
Corn plant response rating (crop injury, 0 = no effect, 100 = complete kill) at 16 g/ha (corn (Zea mays); 16 g ai/ha): 0%
Corn plant response rating (crop injury, 0 = no effect, 100 = complete kill) at 31 g/ha (corn (Zea mays); 31 g ai/ha): 0%
Corn plant response rating (crop injury, 0 = no effect, 100 = complete kill) at 62 g/ha (corn (Zea mays); 62 g ai/ha): 5%
Corn plant response rating (crop injury, 0 = no effect, 100 = complete kill) at 125 g/ha (corn (Zea mays); 125 g ai/ha): 5%
plant injury at 31 g/ha ([18]; 31 g ai/ha): 0%
plant injury at 62 g/ha ([18]; 62 g ai/ha): 0%
plant injury at 125 g/ha ([18]; 125 g ai/ha): 0%
pest or weed control at 16 g/ha ([19]; 16 g ai/ha): 0%
pest or weed control at 31 g/ha ([19]; 31 g ai/ha): 0%
pest or weed control at 62 g/ha ([19]; 62 g ai/ha): 5%
pest or weed control at 125 g/ha ([19]; 125 g ai/ha): 20%
pest or weed control at 16 g/ha ([20]; 16 g ai/ha): 85%
pest or weed control at 31 g/ha ([20]; 31 g ai/ha): 85%
pest or weed control at 62 g/ha ([20]; 62 g ai/ha): 90%
pest or weed control at 125 g/ha ([20]; 125 g ai/ha): 98%

Reference: US20170190671A1, “BIS(ARYL)CATECHOL DERIVATIVES AS HERBICIDES” (E I DU PONT DE NEMOURS AND COMPANY, priority 2014, published 2017)
